Legend:
sciatic nerve [1] = assay: Sciatic nerve block in rats: duration of thermal nociceptive (sensory) block, modified hotplate test; type: in vivo, rat; conditions: for Sensory:Motor Block Ratio: rat sciatic nerve block; for Block Duration (min) Sensory: rat sciatic nerve injection 0.3 mL
Description: (§1) Sciatic Nerve Block and Neurobehavioral Testing. Animals were cared for in compliance with protocols approved by the Children's Hospital Animal Care and Use Committee, and the Massachusetts Institute of Technology Committee on Animal Care, which conformed to guidelines of the International Association for the Study of Pain. Adult male Sprague-Dawley rats (Charles River Laboratories) weighing 320-450 g were housed in groups, in a 6 AM to 6 PM light-dark cycle. Under brief isoflurane-oxygen anesthesia, a 23G needle was introduced postero-medial to the greater trochanter, until bone was contacted, and 0.3 mL of test solution was injected over the sciatic nerve. Thermal nociception was assessed by a modified hotplate test, and motor function via a weight-bearing test. […] Motor strength was assessed with a weight-bearing test. In brief, the animal was held over a digital balance such that it could bear weight with 1 hind paw at a time. The maximum weight that it could bear was recorded. The duration of motor blockade was defined as the time for weight bearing to return halfway to normal from maximal block. The halfway point for each rat was defined as […].

sciatic nerve [2] = assay: Sciatic nerve block in rats: duration of motor block, weight-bearing test; type: in vivo; conditions: rat sciatic nerve injection 0.3 mL
Description: as §1

PC12 cells = assay: Cytotoxicity in PC12 cells; type: cell-based, rat; conditions: FIG. 1 / Table 2
Procedure: (§2) C2C12 Mouse myoblasts [American Type Culture Collection (ATCC) CRL-1772] were cultured to proliferate in DMEM supplemented with 20% FBS and 100 Penicillin Streptomycin. Cell culture supplies were obtained from Invitrogen, unless otherwise noted. Cells were plated at 50,000 cells per mL in DMEM with 2% horse serum and 1% Penn Strep, and left to differentiate into myotubules for 10-14 days. During differentiation, media were exchanged every 2 to 3 days. Cell viability and proliferation were studied after exposures to drugs for up to 24 h. PC12 cells (ATCC, CRL-1721) originating from rat adrenal gland pheochromocytoma were grown in 24-well tissue culture dishes (CellBind; Corning) with F-12K (ATCC) supplemented with 12.5% horse serum (Gibco), 2.5% FBS (Gibco), and 1% Penn Strep (Sigma). For neuronal induction (PC12), cells were seeded at a relative low density of 5×10^4 cells/cm2 and 50 ng/mL NGF was added 24 h after seeding. Cell viability and proliferation were evaluated as for C2C12 cells. Experiments with PC12 cells were conducted for up to 24 hours.

C2C12 Mouse myoblasts = assay: Cytotoxicity in C2C12 myotubules; type: cell-based; conditions: C2C12 cells, FIG. 2 / Table 2
Procedure: as §2

Q: How did the “Sensory:Motor Block Ratio” value (sciatic nerve [1]; dose conc 5 mM) turn out when `CCCC[N@+]1(CC(=O)OC)CCCC[C@H]1C(=O)Nc1c(C)cccc1C` (racemic) [2a + 2b, 1-Butyl-2-((2,6-dimethylphenyl)carbamoyl)-1-(2-methoxy-2-oxoethyl)piperidin-1-ium bromide] was run?
A: ∞

Q: What about the “Block Duration (min) Sensory” value (sciatic nerve [1]; dose conc 5 mM) of the same compound?
A: 30 ± 12 min

Q: What about the “Block Duration (min) Sensory” value (sciatic nerve [1]; dose conc 7.5 mM) of the same compound?
A: 120 ± 34 min

Q: And the “Block Duration (min) Sensory” value (sciatic nerve [1]; dose conc 10 mM)?
A: 150 ± 51 min

Q: And the “Block Duration (min) Motor” value (sciatic nerve [2]; dose conc 5 mM)?
A: 0 min

Q: And the “Block Duration (min) Motor” value (sciatic nerve [2]; dose conc 7.5 mM)?
A: 30 ± 15 min

Q: What about the “Block Duration (min) Motor” value (sciatic nerve [2]; dose conc 10 mM) of the same compound?
A: 50 ± 23 min

Q: What about the “cytotoxicity compared with ropivacaine and bupivacaine (in words)” value (PC12 cells) of the same compound?
A: significantly less cytotoxic than ropivacaine and bupivacaine

Q: And the “cytotoxicity compared with ropivacaine and bupivacaine (in words)” value (C2C12 Mouse myoblasts)?
A: significantly less cytotoxic than ropivacaine and bupivacaine

Q: How did the “Sensory:Motor Block Ratio” value (sciatic nerve [1]; dose conc 5 mM) turn out when `CCC[N@+]1(CC(=O)OC)CCCC[C@H]1C(=O)Nc1c(C)cccc1C.[Br-]` (racemic) [4Sa + 4Sb, 2-((2,6-Dimethylphenyl)carbamoyl)-1-(2-methoxy-2-oxoethyl)-1-propylpiperidin-1-ium bromide] was run?
A: ∞

Q: What about the “Block Duration (min) Sensory” value (sciatic nerve [1]; dose conc 5 mM) of the same compound?
A: 34 ± 13 min

Q: What about the “Block Duration (min) Sensory” value (sciatic nerve [1]; dose conc 7.5 mM) of the same compound?
A: 108 ± 27 min

Q: What about the “Block Duration (min) Sensory” value (sciatic nerve [1]; dose conc 10 mM) of the same compound?
A: 220 ± 40 min

Q: And the “Block Duration (min) Sensory” value (sciatic nerve [1]; dose conc 15 mM)?
A: 254 ± 48 min

Q: And the “Block Duration (min) Motor” value (sciatic nerve [2]; dose conc 5 mM)?
A: 0 min

Q: What about the “Block Duration (min) Motor” value (sciatic nerve [2]; dose conc 7.5 mM) of the same compound?
A: 10 ± 10 min

Q: What about the “Block Duration (min) Motor” value (sciatic nerve [2]; dose conc 10 mM) of the same compound?
A: 78 ± 24 min

Q: And the “Block Duration (min) Motor” value (sciatic nerve [2]; dose conc 15 mM)?
A: 69 ± 20 min

Q: What about the “cytotoxicity compared with ropivacaine and bupivacaine (in words)” value (PC12 cells) of the same compound?
A: significantly less cytotoxic than ropivacaine and bupivacaine

Q: And the “cytotoxicity compared with ropivacaine and bupivacaine (in words)” value (C2C12 Mouse myoblasts)?
A: significantly less cytotoxic than ropivacaine and bupivacaine

Q: Which results are given for `COC(=O)C[N@@+]1(C)CCCC[C@H]1C(=O)Nc1c(C)cccc1C` (racemic) [Compound 3a, 2-((2,6-Dimethylphenyl)carbamoyl)-1-(2-methoxy-2-oxoethyl)-1-methylpiperidin-1-ium bromide]?
A: Block Duration (min) Sensory (sciatic nerve [1]; dose conc 10 mM): 0 min; Block Duration (min) Motor (sciatic nerve [2]; dose conc 10 mM): 0 min

Q: Which results are given for `COC(=O)C[N@@+]1(C)CCCC[C@@H]1C(=O)Nc1c(C)cccc1C` (racemic) [Compound 3b, 2-((2,6-Dimethylphenyl)carbamoyl)-1-(2-methoxy-2-oxoethyl)-1-methylpiperidin-1-ium bromide]?
A: Block Duration (min) Sensory (sciatic nerve [1]; dose conc 10 mM): 450 ± 60 min; Block Duration (min) Motor (sciatic nerve [2]; dose conc 10 mM): 300 ± 60 min

Q: For `CCCN1CCCC[C@H]1C(=O)Nc1c(C)cccc1C` (single isomer, unassigned) [(S)-Ropivacaine, reference compound], which “Block Duration (min) Sensory” value (sciatic nerve [1]; dose conc 10 mM) is on record?
A: 150 ± 35 min

Q: And the “Block Duration (min) Sensory” value (sciatic nerve [1]; dose conc 15 mM)?
A: 215 ± 31 min

Q: What about the “Block Duration (min) Motor” value (sciatic nerve [2]; dose conc 10 mM) of the same compound?
A: 150 ± 38 min

Q: And the “Block Duration (min) Motor” value (sciatic nerve [2]; dose conc 15 mM)?
A: 210 ± 28 min

From patent US12454509B2, “Local anesthetics with selective-sensory nerve blockade” (Children's Medical Center Corporation, priority 2019, dated 2025)
